Results on 16 compounds are retold here after patent US12264156B2, “Compounds and pharmaceutical compositions thereof for the treatment of diseases” (GALAPAGOS NV, priority 2018, dated 2025).

The target in assay [1] is T1, SIK1 (Homo sapiens, UniProt P57059).
T1 construct: purchased Carna Biosciences 02-131
Briefly: ADP-Glo kinase assay, SIK1. The class given is biochemical. The conditions noted are these: ADP-Glo SIK kinase assay. In a few lines: (§1)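 Wells with 1% DMSO or 10 μM staurosporine (final) define the control window. The kinase reaction with substrate and ATP runs 120 min at RT, followed by ADP-Glo detection: ATP depletion (40 min) and ADP-derived luminescence (30 min).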

For assay [2], the target named is T2, SIK2 (Homo sapiens, UniProt Q9H0K1).
T2 construct: purchased ThermoFisher Scientific PV4792
T2 sequence (Q9H0K1 whole entry): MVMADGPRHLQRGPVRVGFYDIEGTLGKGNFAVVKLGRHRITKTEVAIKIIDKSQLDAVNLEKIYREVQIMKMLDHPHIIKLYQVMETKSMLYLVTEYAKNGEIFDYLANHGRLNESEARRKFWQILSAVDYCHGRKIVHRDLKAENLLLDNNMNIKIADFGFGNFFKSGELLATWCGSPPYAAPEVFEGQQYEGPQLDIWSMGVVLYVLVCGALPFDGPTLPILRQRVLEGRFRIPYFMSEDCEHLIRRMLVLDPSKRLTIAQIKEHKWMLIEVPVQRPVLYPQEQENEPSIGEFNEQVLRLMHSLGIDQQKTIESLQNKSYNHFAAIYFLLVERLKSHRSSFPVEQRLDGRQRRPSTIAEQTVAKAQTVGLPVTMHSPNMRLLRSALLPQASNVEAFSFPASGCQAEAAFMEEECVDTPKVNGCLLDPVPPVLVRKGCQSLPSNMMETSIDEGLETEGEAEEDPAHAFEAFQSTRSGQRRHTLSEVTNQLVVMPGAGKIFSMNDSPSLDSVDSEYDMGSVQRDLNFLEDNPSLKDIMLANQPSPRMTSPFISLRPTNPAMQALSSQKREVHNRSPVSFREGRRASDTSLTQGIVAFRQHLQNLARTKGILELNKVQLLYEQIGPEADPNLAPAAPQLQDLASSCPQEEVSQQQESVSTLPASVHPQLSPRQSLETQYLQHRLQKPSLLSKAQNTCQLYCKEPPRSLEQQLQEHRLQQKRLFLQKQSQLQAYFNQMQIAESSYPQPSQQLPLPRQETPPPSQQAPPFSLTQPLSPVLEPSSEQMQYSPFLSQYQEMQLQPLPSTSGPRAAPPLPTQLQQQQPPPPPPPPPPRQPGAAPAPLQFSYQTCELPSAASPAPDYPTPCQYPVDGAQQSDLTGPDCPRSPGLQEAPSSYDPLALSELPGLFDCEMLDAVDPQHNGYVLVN
Briefly: ADP-Glo kinase assay, SIK2. The class given is biochemical. The conditions noted are these: ADP-Glo SIK kinase assay. In a few lines: as §1

Assay [3] concerns the target T3, SIK3 (Homo sapiens, UniProt Q9Y2K2).
T3 construct: purchased SignalChem S12-11G-100
The experiment in a line: ADP-Glo kinase assay, SIK3. Particulars: ADP-Glo SIK kinase assay. The class given is biochemical. In a few lines: as §1

Assay [4] has as its system LPS-induced TNFα in monocytes. The experiment in a line: Monocytes assay: LPS-triggered TNFα (ELISA). The class given is cell-based, human. The conditions noted are these: Homo sapiens, Monocyte, 4 h, LPS 200 ng/mL, supernatant after 4 h. A digest of the protocol: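 Supernatant TNFα was quantified by luminol-based sandwich ELISA after 4 h stimulation with LPS (200 ng/mL final). The cells were CD14-bead-purified monocytes from human PBMCs, 100 000 per well, exposed to 3-fold compound dilutions for 1 h at 37° C beforehand, with DMSO at 0.2%. Results are reported as percent inhibition.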

Assay [5] concerns LPS triggered IL-10 secretion in monocytes. Briefly: Monocytes assay: LPS-triggered IL-10 (ELISA). The conditions noted are these: LPS 200 ng/mL, supernatant after 4 h, maximal fold change vs LPS only. The class given is cell-based, human. A digest of the protocol: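 Human CD14+ monocytes, magnetically isolated from buffy-coat PBMCs, were seeded at 100 000 cells/well and preincubated with compound for 1 h at 37° C (0.2% DMSO). LPS was then added at a final 200 ng/mL for 4 h. Supernatant IL-10 was quantified by chemiluminescent sandwich ELISA against a standard curve.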

T1 sequence (P57059 whole entry): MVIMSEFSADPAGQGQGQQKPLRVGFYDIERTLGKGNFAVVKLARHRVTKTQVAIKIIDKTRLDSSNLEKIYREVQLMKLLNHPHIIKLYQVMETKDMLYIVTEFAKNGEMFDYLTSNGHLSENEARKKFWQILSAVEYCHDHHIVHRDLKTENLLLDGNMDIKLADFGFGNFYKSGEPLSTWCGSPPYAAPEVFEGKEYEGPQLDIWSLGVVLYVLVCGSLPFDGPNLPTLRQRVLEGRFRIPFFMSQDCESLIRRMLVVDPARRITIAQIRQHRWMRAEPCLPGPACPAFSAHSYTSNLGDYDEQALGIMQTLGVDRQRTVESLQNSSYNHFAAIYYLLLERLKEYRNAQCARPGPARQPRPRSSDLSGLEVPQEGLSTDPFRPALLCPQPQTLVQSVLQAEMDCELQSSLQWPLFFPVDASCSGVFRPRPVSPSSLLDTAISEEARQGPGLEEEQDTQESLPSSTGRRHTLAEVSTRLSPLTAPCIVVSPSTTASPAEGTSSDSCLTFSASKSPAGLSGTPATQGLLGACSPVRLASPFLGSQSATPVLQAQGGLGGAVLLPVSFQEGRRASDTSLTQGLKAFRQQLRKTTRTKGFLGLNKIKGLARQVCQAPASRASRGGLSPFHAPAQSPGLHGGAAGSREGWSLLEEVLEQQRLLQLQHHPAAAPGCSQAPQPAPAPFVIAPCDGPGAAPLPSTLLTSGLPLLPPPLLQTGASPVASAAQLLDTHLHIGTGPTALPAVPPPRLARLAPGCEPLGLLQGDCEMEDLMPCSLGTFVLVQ
T3 sequence (Q9Y2K2 whole entry): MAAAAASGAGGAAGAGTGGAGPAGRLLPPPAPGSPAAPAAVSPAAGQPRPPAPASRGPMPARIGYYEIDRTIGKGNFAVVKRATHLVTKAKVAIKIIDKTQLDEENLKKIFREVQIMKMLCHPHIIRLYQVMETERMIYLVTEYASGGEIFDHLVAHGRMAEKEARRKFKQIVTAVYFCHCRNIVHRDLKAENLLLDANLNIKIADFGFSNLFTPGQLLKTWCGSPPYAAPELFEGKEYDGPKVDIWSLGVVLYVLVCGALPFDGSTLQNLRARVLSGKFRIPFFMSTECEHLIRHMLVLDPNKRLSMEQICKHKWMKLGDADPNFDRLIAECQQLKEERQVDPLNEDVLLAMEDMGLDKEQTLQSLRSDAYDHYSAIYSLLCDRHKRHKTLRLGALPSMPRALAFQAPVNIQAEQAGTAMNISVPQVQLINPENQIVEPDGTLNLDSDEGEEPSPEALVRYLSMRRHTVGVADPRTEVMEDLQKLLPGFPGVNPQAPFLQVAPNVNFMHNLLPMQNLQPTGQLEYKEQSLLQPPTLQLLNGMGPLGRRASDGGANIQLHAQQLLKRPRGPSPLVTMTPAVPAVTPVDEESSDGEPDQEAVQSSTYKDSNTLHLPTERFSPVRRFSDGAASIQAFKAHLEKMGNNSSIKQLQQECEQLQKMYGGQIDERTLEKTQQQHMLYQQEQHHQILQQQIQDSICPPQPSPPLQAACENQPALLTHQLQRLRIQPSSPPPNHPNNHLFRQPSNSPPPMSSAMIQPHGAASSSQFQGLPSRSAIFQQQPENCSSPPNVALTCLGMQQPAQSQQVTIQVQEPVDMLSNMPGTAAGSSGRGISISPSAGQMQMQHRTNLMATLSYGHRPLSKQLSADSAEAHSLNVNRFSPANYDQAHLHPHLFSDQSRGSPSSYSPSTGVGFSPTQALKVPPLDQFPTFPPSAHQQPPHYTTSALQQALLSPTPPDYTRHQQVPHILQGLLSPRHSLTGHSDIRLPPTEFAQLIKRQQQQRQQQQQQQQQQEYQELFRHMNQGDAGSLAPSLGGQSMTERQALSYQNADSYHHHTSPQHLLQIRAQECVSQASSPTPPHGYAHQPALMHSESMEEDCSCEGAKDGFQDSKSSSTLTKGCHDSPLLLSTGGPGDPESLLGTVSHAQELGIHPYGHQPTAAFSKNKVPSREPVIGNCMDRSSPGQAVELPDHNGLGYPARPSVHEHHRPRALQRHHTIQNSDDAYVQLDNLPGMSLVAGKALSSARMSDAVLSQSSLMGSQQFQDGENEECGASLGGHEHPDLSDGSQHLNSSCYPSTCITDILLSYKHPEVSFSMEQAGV

`COc1cc(-c2cnc3cc(OCCCN4CCC45COC5)ccn23)cc(OC(F)F)c1C(=O)NC1CC1` [compound 300, N-cyclopropyl-2-(difluoromethoxy)-6-methoxy-4-[7-[3-(6-oxa-1-azaspiro[3.3]heptan-1-yl)propoxy]imidazo[1,2-a]pyridin-3-yl]benzamide]: the values for the IC50 in assay [1], in assay [2] and in assay [3] were 10 to 100 nM, 0.01 to 10 nM and 0.01 to 10 nM, respectively. In assay [4], this compound displayed an EC50 of 0.1 to 100 nM. The “IL-10 FCmax median” value in assay [5] is recorded as “+++ (>4.5)”.

For the compound `COc1cc(-c2cnc3cc(OCCC4CCCN4C(C)C)ccn23)cc(OC(F)F)c1C(=O)NC1CC1` (centres unmarked) [compound 301, N-cyclopropyl-2-(difluoromethoxy)-4-[7-[2-(1-isopropylpyrrolidin-2-yl)ethoxy]imidazo[1,2-a]pyridin-3-yl]-6-methoxy-benzamide], the IC50 was 10 to 100 nM in assay [1], 0.01 to 10 nM in assay [2] and 0.01 to 10 nM in assay [3]. In assay [4], this compound gave an EC50 of 0.1 to 100 nM. Moreover, in assay [5], the “IL-10 FCmax median” value is on record as “+++ (>4.5)”.

With `COc1cc(-c2cnc3cc(OCCCN4CCC45CCC5)ccn23)cc(OC(F)F)c1C(=O)NC1CC1` [compound 302, 4-[7-[3-(1-azaspiro[3.3]heptan-1-yl)propoxy]imidazo[1,2-a]pyridin-3-yl]-N-cyclopropyl-2-(difluoromethoxy)-6-methoxy-benzamide], the values for the IC50 in assay [1], in assay [2] and in assay [3] were 10 to 100 nM, 0.01 to 10 nM and 0.01 to 10 nM, respectively. Also, in assay [4], the EC50 was 0.1 to 100 nM. In addition, in assay [5], the “IL-10 FCmax median” value is listed as “+++ (>4.5)”.

`COc1cc(-c2cnc3cc(OCCCN4CCCC5(COC5)C4)ccn23)cc(OC(F)F)c1C(=O)NC1CC1` [compound 303, N-cyclopropyl-2-(difluoromethoxy)-6-methoxy-4-[7-[3-(2-oxa-8-azaspiro[3.5]nonan-8-yl)propoxy]imidazo[1,2-a]pyridin-3-yl]benzamide]: the results for the IC50 in assay [1], in assay [2] and in assay [3] were 10 to 100 nM, 0.01 to 10 nM and 0.01 to 10 nM, respectively. This compound displayed an EC50 in assay [4] of 0.1 to 100 nM. Further, the “IL-10 FCmax median” value in assay [5] is on record as “+++ (>4.5)”.

Take `COc1cc(-c2cnc3cc(OC[C@H]4CCN(C(C)C)C4)ccn23)cc(OC(F)F)c1C(=O)NC1CC1` [compound 316, N-cyclopropyl-2-(difluoromethoxy)-4-[7-[[(3S)-1-isopropylpyrrolidin-3-yl]methoxy]imidazo[1,2-a]pyridin-3-yl]-6-methoxy-benzamide]: the IC50 in assay [1] was in the range of 10 to 100 nM; in assay [2], 0.01 to 10 nM; in assay [3], 0.01 to 10 nM. Also, the EC50 in assay [4] fell in the range of 0.1 to 100 nM. In addition, in assay [5], the “IL-10 FCmax median” value is on record as “+++ (>4.5)”.

Regarding `COc1cc(-c2cnc3cc(OCCCN4CCC(O)C4)ccn23)cc(OC(F)F)c1C(=O)NC1CC1` (centres unmarked) [compound 319, N-cyclopropyl-2-(difluoromethoxy)-4-[7-[3-(3-hydroxypyrrolidin-1-yl)propoxy]imidazo[1,2-a]pyridin-3-yl]-6-methoxy-benzamide], the IC50 in assay [1] lay in the range of 10 to 100 nM; in assay [2], 0.01 to 10 nM; in assay [3], 0.01 to 10 nM. Also, in assay [4], the EC50 fell in the range of 100 to 1000 nM. Also, the “IL-10 FCmax median” value in assay [5] is reported as “++ (>1.5-4.5)”.

In the case of `COc1cc(-c2cnc3cc(OCCCN4CCS(=N)(=O)CC4)ccn23)cc(OC(F)F)c1C(=O)NC1CC1` [compound 327, N-cyclopropyl-2-(difluoromethoxy)-4-[7-[3-(1-imino-1-oxo-1,4-thiazinan-4-yl)propoxy]imidazo[1,2-a]pyridin-3-yl]-6-methoxy-benzamide], the IC50 in assay [1] fell in the range of 10 to 100 nM; in assay [2], 0.01 to 10 nM; in assay [3] it was 0.01 to 10 nM. This compound returned an EC50 in assay [4] of 100 to 1000 nM. Also, in assay [5], the “IL-10 FCmax median” value is given as “+++ (>4.5)”.

Turning to `COc1cc(-c2cnc3cc(OC[C@H]4CCCN(C(C)C)C4)ccn23)cc(OC(F)F)c1C(=O)NC1CC1` [compound 329, N-cyclopropyl-2-(difluoromethoxy)-4-[7-[[(3S)-1-isopropyl-3-piperidyl]methoxy]imidazo [1,2-a]pyridin-3-yl]-6-methoxy-benzamide], the values for the IC50 in assay [1], in assay [2] and in assay [3] were 10 to 100 nM, 0.01 to 10 nM and 0.01 to 10 nM, respectively. In assay [4], this compound returned an EC50 of 0.1 to 100 nM. Further, the “IL-10 FCmax median” value in assay [5] was “+++ (>4.5)”.

For `COc1cc(-c2cnc3cc(OC[C@@H]4CCN(C(C)C)C4)ccn23)cc(OC(F)F)c1C(=O)NC1CC1` [compound 337, N-cyclopropyl-2-(difluoromethoxy)-4-[7-[[(3R)-1-isopropylpyrrolidin-3-yl]methoxy]imidazo[1,2-a]pyridin-3-yl]-6-methoxy-benzamide], the IC50 is 10 to 100 nM in assay [1], 0.01 to 10 nM in assay [2] and 0.01 to 10 nM in assay [3]. The same compound displayed a 50% effective concentration (EC50) in assay [4] of 0.1 to 100 nM. Moreover, the “IL-10 FCmax median” value in assay [5] is recorded as “+++ (>4.5)”.

Consider `COc1cc(-c2cnc3cc(OC[C@@H]4CCCN(C(C)C)C4)ccn23)cc(OC(F)F)c1C(=O)NC1CC1` [compound 338, N-cyclopropyl-2-(difluoromethoxy)-4-[7-[[(3R)-1-isopropyl-3-piperidyl]methoxy]imidazo [1,2-a]pyridin-3-yl]-6-methoxy-benzamide], for which the results for the IC50 in assay [1], in assay [2] and in assay [3] were 10 to 100 nM, 0.01 to 10 nM and 0.01 to 10 nM, respectively. The EC50 in assay [4] fell in the range of 0.1 to 100 nM. In addition, the “IL-10 FCmax median” value in assay [5] was “++ (>1.5-4.5)”.

Consider `COc1cc(-c2cnc3cc(OCCCN4CCC(F)(F)C(O)C4)ccn23)cc(OC(F)F)c1C(=O)NC1CC1` (centres unmarked) [compound 344, N-cyclopropyl-4-[7-[3-(4,4-difluoro-3-hydroxy-1-piperidyl)propoxy]imidazo [1,2-a]pyridin-3-yl]-2-(difluoromethoxy)-6-methoxy-benzamide], for which the IC50 in assay [1] was in the range of 10 to 100 nM; in assay [2] it was 0.01 to 10 nM; in assay [3], 0.01 to 10 nM. In assay [4], this compound came in with an EC50 of 0.1 to 100 nM. In addition, the “IL-10 FCmax median” value in assay [5] is given as “++ (>1.5-4.5)”.

Turning to `COc1cc(-c2cnc3cc(OCCCN4CC(O)C(F)(F)C4)ccn23)cc(OC(F)F)c1C(=O)NC1CC1` (centres unmarked) [compound 345, N-cyclopropyl-4-[7-[3-(3,3-difluoro-4-hydroxy-pyrrolidin-1-yl)propoxy]imidazo[1,2-a]pyridin-3-yl]-2-(difluoromethoxy)-6-methoxy-benzamide], the IC50 lay within 10 to 100 nM in assay [1], 0.01 to 10 nM in assay [2] and 0.01 to 10 nM in assay [3]. The same compound registered an EC50 in assay [4] of 0.1 to 100 nM. Besides, the “IL-10 FCmax median” value in assay [5] is given as “+++ (>4.5)”.

`COc1cc(-c2cnc3cc(OCCCN4CC(O)(C(F)(F)F)C4)ccn23)cc(OC(F)F)c1C(=O)NC1CC1` [compound 348, N-cyclopropyl-2-(difluoromethoxy)-4-[7-[3-[3-hydroxy-3-(trifluoromethyl)azetidin-1-yl]propoxy]imidazo[1,2-a]pyridin-3-yl]-6-methoxy-benzamide]: the IC50 lay within 10 to 100 nM in assay [1], 0.01 to 10 nM in assay [2] and 0.01 to 10 nM in assay [3]. The same compound registered an EC50 in assay [4] of 0.1 to 100 nM. Also, in assay [5], the “IL-10 FCmax median” value is recorded as “++ (>1.5-4.5)”.

For the compound `COc1cc(-c2cnc3cc(OCCCN4CCCCC4)ccn23)cc(OC(F)F)c1C(=O)N1CC(O)(C(F)(F)F)C1` [compound 354, [2-(difluoromethoxy)-6-methoxy-4-[7-[3-(1-piperidyl)propoxy]imidazo[1,2-a]pyridin-3-yl]phenyl]-[3-hydroxy-3-(trifluoromethyl)azetidin-1-yl]methanone], the IC50 was in the range of 10 to 100 nM in assay [1], 0.01 to 10 nM in assay [2] and 0.01 to 10 nM in assay [3]. This compound came in with an EC50 in assay [4] of 100 to 1000 nM. Also, the “IL-10 FCmax median” value in assay [5] is “+++ (>4.5)”.

`COc1cc(-c2cnc3cc(OCCCN4CCCCC4)ccn23)cc(OC(F)F)c1C(=O)NCC#N` [compound 356, N-(cyanomethyl)-2-(difluoromethoxy)-6-methoxy-4-[7-[3-(1-piperidyl)propoxy]imidazo[1,2-a]pyridin-3-yl]benzamide]: the IC50 was 10 to 100 nM in assay [1], 0.01 to 10 nM in assay [2] and 0.01 to 10 nM in assay [3]. Also, the EC50 in assay [4] lay in the range of 100 to 1000 nM. Besides, in assay [5], the “IL-10 FCmax median” value is listed as “+++ (>4.5)”.

On to `COc1cc(-c2cnc3cc(OCCCN4CCCCC4)ccn23)cc(OC(F)F)c1C(=O)N1CC(O)(C(F)F)C1` [compound 358, [2-(difluoromethoxy)-6-methoxy-4-[7-[3-(1-piperidyl)propoxy]imidazo[1,2-a]pyridin-3-yl]phenyl]-[3-(difluoromethyl)-3-hydroxy-azetidin-1-yl]methanone], for which the results for the IC50 in assay [1], in assay [2] and in assay [3] were 10 to 100 nM, 0.01 to 10 nM and 0.01 to 10 nM, respectively. In assay [4], this compound displayed an EC50 of 100 to 1000 nM. Further, the “IL-10 FCmax median” value in assay [5] is reported as “+++ (>4.5)”.
